Drawing on patent publication US10851079B2, “Piperidine derivative” (OTSUKA PHARMACEUTICAL CO., LTD., priority 2016, dated 2020), this text covers MIC for 46 molecules.

The test system of the assay is Mycobacteria tuberculosis (M. tuberculosis H37Rv and M. tuberculosis Kurono). Briefly: Antibacterial test (agar plate dilution method), minimum inhibitory concentration. Type of assay: cell-based. As to conditions: Mycobacterium tuberculosis, 7H11 agar medium, about 10^6 CFU/mL inoculum, incubation at 37° C., strains H37Rv and Kurono, read-out: minimum inhibitory concentration against Mycobacteria tuberculosis.
Take `OC1(COc2cccc3cnccc23)CCN(c2ccc(Cl)cc2F)CC1` [Example 1, 1-(4-chloro-2-fluorophenyl)-4-(isoquinolin-5-yloxymethyl)piperidin-4-ol]: the MIC was at most 3.13 µg/mL.
For `O[C@@H]1CN(c2c(F)cc(Cl)cc2F)CC[C@@]1(O)COc1ccc(Cl)c2cccnc12` [Example 6, (3R,4R)-1-(4-chloro-2,6-difluorophenyl)-4-[(5-chloroquinolin-8-yl)oxymethyl]piperidine-3,4-diol] the value was at most 3.13 µg/mL; for `CC(C)(C)N1Cc2c(OC[C@]3(O)CCN(c4c(F)cc(Cl)cc4F)C[C@H]3O)cccc2C1=O` [Example 9], at most 3.13 µg/mL.
The value for `Cn1c(=O)[nH]c2cccc(OC[C@]3(O)CCN(c4c(F)cc(Cl)cc4F)C[C@H]3O)c21` [Example 11] was at most 3.13 µg/mL.
For `O=C1CCc2c(OC[C@]3(O)CCN(c4c(F)cc(Cl)cc4F)C[C@H]3O)cccc21` [Example 17] the value was at most 3.13 µg/mL; for `O[C@@H]1CN(c2c(F)cc(Cl)cc2F)CC[C@@]1(O)COc1ccc(Br)c2ccoc12` [Example 23], at most 3.13 µg/mL.
In the case of `OC1CCc2c(OC[C@]3(O)CCN(c4c(F)cc(Cl)cc4F)C[C@H]3O)cccc21` (stereo partly drawn) [Example 24, (3R,4R)-1-(4-chloro-2,6-difluorophenyl)-4-[(1-hydroxy-2,3-dihydro-1H-inden-4-yl)oxymethyl]piperidine-3,4-diol], the MIC is at most 3.13 µg/mL.
The value for `O[C@@H]1CN(c2c(F)cc(Cl)cc2F)CC[C@@]1(O)COc1cccc2[nH]ncc12` [Example 28] was at most 3.13 µg/mL; that for `Cc1noc2cccc(OC[C@]3(O)CCN(c4c(F)cc(Cl)cc4F)C[C@H]3O)c12` [Example 32] was at most 3.13 µg/mL; that for `O[C@@H]1CN(c2c(F)cc(Cl)cc2F)CC[C@@]1(O)COc1cccc2[nH]cnc12` [Example 34] was at most 3.13 µg/mL.
Take `CN1Cc2c(cccc2OC[C@]2(O)CCN(c3c(F)cc(Cl)cc3F)C[C@H]2O)NC1=O` [Example 41]: the MIC is at most 3.13 µg/mL.
For `Cl.O[C@@H]1CN(c2c(F)cc(Cl)cc2F)CC[C@@]1(O)COc1ccc(F)c2c1CCCN2` [Example 44, (3R,4R)-1-(4-chloro-2,6-difluorophenyl)-4-[(8-fluoro-1,2,3,4-tetrahydroquinolin-5-yl)oxymethyl]piperidine-3,4-diol hydrochloride] the value was at most 3.13 µg/mL; for `O[C@@H]1CN(c2ccc(Cl)cc2F)CC[C@@]1(O)COc1ccc(Cl)c2[nH]ncc12` [Example 47], at most 3.13 µg/mL.
In the case of `O=c1cnc2c(OC[C@]3(O)CCN(c4ccc(Br)cc4F)C[C@H]3O)cccc2[nH]1` [Example 50], the MIC is at most 3.13 µg/mL.
Turning to `O=c1cnc2cccc(OC[C@]3(O)CCN(c4ccc(Cl)cc4F)C[C@H]3O)c2[nH]1` [Example 51], the MIC was at most 3.13 µg/mL.
The value for `Cn1c(=O)cnc2c(OC[C@]3(O)CCN(c4c(F)cc(Cl)cc4F)C[C@H]3O)cccc21` [Example 53, 1-methyl-5-[[(3R,4R)-1-(4-chloro-2,6-difluorophenyl)-3,4-dihydroxypiperidin-4-yl]methoxy]quinoxalin-2-one] was at most 3.13 µg/mL.
For the molecule `CC(=O)Nc1cc(F)ccc1OC[C@]1(O)CCN(c2c(F)cc(Cl)cc2F)C[C@H]1O` [Example 62], the MIC is at most 3.13 µg/mL.
The value for `O=C1COCc2c(cccc2OC[C@]2(O)CCN(c3c(F)cc(Cl)cc3F)C[C@H]2O)N1` [Example 65] was at most 3.13 µg/mL.
For `O=C1CSCc2c(cccc2OC[C@]2(O)CCN(c3c(F)cc(Cl)cc3F)C[C@H]2O)N1` [Example 66] the value was at most 3.13 µg/mL; for `O=C1Nc2cccc(OC[C@]3(O)CCN(c4ccc(Cl)cc4F)C[C@H]3O)c2CS1` [Example 68], at most 3.13 µg/mL; for `O=C1CCc2c(OC[C@]3(O)CCN(c4ccc(Br)cc4F)C[C@H]3O)ccnc2N1` [Example 71], at most 3.13 µg/mL.
For `O=C1CSc2c(cccc2OC[C@]2(O)CCN(c3ccc(Cl)cc3F)C[C@H]2O)N1` [Example 76] the value was at most 3.13 µg/mL.
`O=C1CCCc2c(OCC3(O)CCN(c4c(F)cc(Cl)cc4F)CC3)ccc(Cl)c2N1` [Example 79]: the MIC is at most 3.13 µg/mL.
The value for `O=C1COc2c(OCC3(O)CCN(c4c(F)cc(Cl)cc4F)CC3)ccc(Cl)c2N1` [Example 80] was at most 3.13 µg/mL; that for `O=C1CCCc2c(OC[C@]3(O)CCN(c4c(F)cc(Cl)cc4F)C[C@H]3O)ccc(Cl)c2N1` [Example 84] was at most 3.13 µg/mL; that for `O=C1CCc2c(OC[C@]3(O)CCN(c4c(F)cc(Cl)cc4F)C[C@H]3O)ccc(Cl)c21` [Example 90, 7-chloro-4-[[(3R,4R)-1-(4-chloro-2,6-difluorophenyl)-3,4-dihydroxypiperidin-4-yl]methoxy]-2,3-dihydroinden-1-one] was at most 3.13 µg/mL.
The value for `COC(=O)c1cc(Cl)ccc1OC[C@]1(O)CCN(c2c(F)cc(Cl)cc2F)C[C@H]1O` [Example 92] was at most 3.13 µg/mL; that for `O=C1Cc2c(OC[C@]3(O)CCN(c4c(F)cc(Cl)cc4F)C[C@H]3O)ccc(Cl)c2N1` [Example 95] was at most 3.13 µg/mL.
For `OCc1cc(Cl)ccc1OC[C@]1(O)CCN(c2c(F)cc(Cl)cc2F)C[C@H]1O` [Example 98, (3R,4R)-1-(4-chloro-2,6-difluorophenyl)-4-[[4-chloro-2-(hydroxymethyl)phenoxy]methyl]piperidine-3,4-diol] the value was at most 3.13 µg/mL; for `CNC(=O)c1cc(Cl)ccc1OC[C@]1(O)CCN(c2c(F)cc(Cl)cc2F)C[C@H]1O` [Example 101], at most 3.13 µg/mL.
Take `Cc1c(OC[C@]2(O)CCN(c3c(F)cc(Cl)cc3F)C[C@H]2O)ccc(Cl)c1NC=O` [Example 105]: the MIC was at most 3.13 µg/mL.
For `O[C@@H]1CN(c2c(F)cc(Cl)cc2F)CC[C@@]1(O)COc1ccc(Cl)c2[nH]c(=S)ccc12` [Example 108] the value was at most 3.13 µg/mL.
The value for `O=C1COc2c(OC[C@]3(O)CCN(c4c(F)cc(Cl)cc4F)C[C@H]3O)ccc(Cl)c2N1` [Example 111] was at most 3.13 µg/mL.
For `O[C@@H]1CN(c2c(F)cc(Cl)cc2F)CC[C@@]1(O)COc1ccc(Cl)c2[nH]ccc12` [Example 113], the MIC is at most 3.13 µg/mL.
For `NC(=O)Cc1cc(F)ccc1OC[C@]1(O)CCN(c2c(F)cc(Cl)cc2F)C[C@H]1O` [Example 117, 2-[5-fluoro-2-[[(3R,4R)-1-(4-chloro-2,6-difluorophenyl)-3,4-dihydroxypiperidin-4-yl]methoxy]phenyl]acetamide] the value was at most 3.13 µg/mL.
For `O=C1Cc2c(OC[C@]3(O)CCN(c4ccc(Br)cc4F)C[C@H]3O)ccc(Cl)c2N1` [Example 120] the value was at most 3.13 µg/mL; for `O=c1[nH]c2c(Cl)ccc(OC[C@]3(O)CCN(c4c(F)cc(Cl)cc4F)C[C@H]3O)c2s1` [Example 122], at most 3.13 µg/mL; for `Nc1nc2c(Cl)ccc(OC[C@]3(O)CCN(c4c(F)cc(Cl)cc4F)C[C@H]3O)c2s1` [Example 127, (3R,4R)-4-[(2-amino-4-chloro-1,3-benzothiazol-7-yl)oxymethyl]-1-(4-chloro-2,6-difluorophenyl)piperidine-3,4-diol], at most 3.13 µg/mL.
Turning to `O=C1NCc2c(OC[C@]3(O)CCN(c4ccc(Br)cc4F)C[C@H]3O)ccc(F)c2N1` [Example 131], the MIC is at most 3.13 µg/mL.
For `O=C1Nc2c(Cl)ccc(OC[C@]3(O)CCN(c4ccc(Cl)cc4F)C[C@H]3O)c2CO1` [Example 133] the value was at most 3.13 µg/mL; for `O[C@@H]1CN(c2c(F)cc(Cl)cc2F)CC[C@@]1(O)COc1ccc(F)c2nc(Cl)sc12` [Example 135], at most 3.13 µg/mL.
The value for `O=c1[nH]c2c(F)ccc(OC[C@]3(O)CCN(c4ccc(Br)cc4F)C[C@H]3O)c2s1` [Example 140] was at most 3.13 µg/mL; that for `O=C1Nc2cccc(OC[C@]3(O)CCN(c4c(F)cc(Cl)cc4F)C[C@H]3O)c2CO1` [Example 141] was at most 3.13 µg/mL.
For `O=C1Cc2c(OCC3(O)CCN(c4c(F)cc(Cl)cc4F)CC3)ccc(F)c2N1` [Example 145, 4-[[1-(4-chloro-2,6-difluorophenyl)-4-hydroxypiperidin-4-yl]methoxy]-7-fluoro-1,3-dihydroindol-2-one] the value was at most 3.13 µg/mL.
Turning to `Cn1c(=O)c(=O)[nH]c2c(OC[C@]3(O)CCN(c4c(F)cc(Cl)cc4F)C[C@H]3O)ccc(F)c21` [Example 146], the MIC was at most 3.13 µg/mL.
With `O=c1[nH]c2c(F)ccc(OCC3(O)CCN(c4c(F)cc(Cl)cc4F)CC3)c2s1` [Example 147, 7-[[1-(4-chloro-2,6-difluorophenyl)-4-hydroxypiperidin-4-yl]methoxy]-4-fluoro-3H-1,3-benzothiazol-2-one], the MIC is at most 3.13 µg/mL.
